Measured values from PubChem BioAssay AID1963863 (Molecular Pharmacology Branch, DTP, NCI, 2024).

Tested on: 931267-113-T-J1-PDC KRAS spheroid with HUVEC/MSC, viability
Test: Anticancer human tumor 931267-113-T-J1-PDC patient-derived colon adenocarcinoma cell line growth inhibition [KRAS2]
Settings: for IC50: curve of first compound; for viability, T/C: stronger effect = lower value
Procedure, shortened: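 Combination screen of spheroid viability in tumor-cell co-cultures with endothelial (HUVEC) and mesenchymal stem cell stroma. Each agent was tested in half-log dilutions, topping at clinical Cmax or at 10 microM without a known Cmax.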

[1] = second compound 0.1 µM, first compound 0.0316 µM
[2] = second compound 0.1 µM, first compound 0.1 µM
[3] = second compound 0.1 µM, first compound 0.316 µM
[4] = second compound 0.1 µM, first compound 1 µM
[5] = second compound 0.1 µM, first compound 3.16 µM
[6] = second compound 0.1 µM, first compound 10 µM
[7] = second compound 0.316 µM, first compound 0.0316 µM
[8] = second compound 0.316 µM, first compound 0.1 µM
[9] = second compound 0.316 µM, first compound 0.316 µM
[10] = second compound 0.316 µM, first compound 1 µM
[11] = second compound 0.316 µM, first compound 3.16 µM
[12] = second compound 0.316 µM, first compound 10 µM
[13] = second compound 1 µM, first compound 0.0316 µM
[14] = second compound 1 µM, first compound 0.1 µM
[15] = second compound 1 µM, first compound 0.316 µM
[16] = second compound 1 µM, first compound 1 µM
[17] = second compound 1 µM, first compound 3.16 µM
[18] = second compound 1 µM, first compound 10 µM
[19] = second compound 3.16 µM, first compound 0.0316 µM
[20] = second compound 3.16 µM, first compound 0.1 µM
[21] = second compound 3.16 µM, first compound 0.316 µM
[22] = second compound 3.16 µM, first compound 1 µM
[23] = second compound 3.16 µM, first compound 3.16 µM
[24] = second compound 3.16 µM, first compound 10 µM
[25] = second compound 10 µM, first compound 0.0316 µM
[26] = second compound 10 µM, first compound 0.1 µM
[27] = second compound 10 µM, first compound 0.316 µM
[28] = second compound 10 µM, first compound 1 µM
[29] = second compound 10 µM, first compound 3.16 µM
[30] = second compound 10 µM, first compound 10 µM
[31] = second compound 0.1 µM, first compound 0.01 µM
[32] = second compound 0.316 µM, first compound 0.01 µM
[33] = second compound 1 µM, first compound 0.01 µM
[34] = second compound 3.16 µM, first compound 0.01 µM
[35] = second compound 10 µM, first compound 0.01 µM
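Note: compound exposure lasted 7 days before the readout.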
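Throughout, for viability, T/C: 100% = DMSO vehicle control viability.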

CC(C)NCC(C(=O)N1CCN(c2ncnc3c2C(C)CC3O)CC1)c1ccc(Cl)cc1 (stereo not given) + COc1cc2nc(C)nc(NC(C)c3cc(N)cc(C(F)(F)F)c3)c2cc1OC1CCOC1
IC50 (second compound 0.1 µM): > 10000 nM | IC50 (second compound 0.316 µM): 5270 nM | IC50 (second compound 1 µM): 4360 nM | IC50 (second compound 3.16 µM): 1620 nM | IC50 (second compound 10 µM): < 31.6 nM | viability, T/C [1]: 87.4% | viability, T/C [2]: 105% | viability, T/C [3]: 104% | viability, T/C [4]: 77.2% | viability, T/C [5]: 58.3% | viability, T/C [6]: 59.9% | viability, T/C [7]: 106% | viability, T/C [8]: 91.6% | viability, T/C [9]: 83.3% | viability, T/C [10]: 76.2% | viability, T/C [11]: 56% | viability, T/C [12]: 40.4% | viability, T/C [13]: 88% | viability, T/C [14]: 76.9% | viability, T/C [15]: 72.7% | viability, T/C [16]: 70.4% | viability, T/C [17]: 54% | viability, T/C [18]: 37.9% | viability, T/C [19]: 78.5% | viability, T/C [20]: 76.7% | viability, T/C [21]: 67.2% | viability, T/C [22]: 54.6% | viability, T/C [23]: 42.7% | viability, T/C [24]: 20.6% | viability, T/C [25]: 0.91% | viability, T/C [26]: 1.02% | viability, T/C [27]: 0.68% | viability, T/C [28]: 0.76% | viability, T/C [29]: 0.45% | viability, T/C [30]: 0.48%

CC1COCCN1c1cc(-c2ccnn2C)c2ccnc(-c3ccn[nH]3)c2n1 (stereo not given) + COc1cc2nc(C)nc(NC(C)c3cc(N)cc(C(F)(F)F)c3)c2cc1OC1CCOC1
IC50 (second compound 0.1 µM): 45.2 nM | IC50 (second compound 0.316 µM): 43 nM | IC50 (second compound 1 µM): 27.9 nM | IC50 (second compound 3.16 µM): 33.3 nM | IC50 (second compound 10 µM): < 10 nM | viability, T/C [31]: 75.4% | viability, T/C [1]: 61.2% | viability, T/C [2]: 25% | viability, T/C [3]: 19.5% | viability, T/C [4]: 15.1% | viability, T/C [5]: 15.2% | viability, T/C [32]: 83.4% | viability, T/C [7]: 59.3% | viability, T/C [8]: 24.5% | viability, T/C [9]: 17.8% | viability, T/C [10]: 15.4% | viability, T/C [11]: 15.3% | viability, T/C [33]: 76.3% | viability, T/C [13]: 46.6% | viability, T/C [14]: 24.1% | viability, T/C [15]: 13.6% | viability, T/C [16]: 17.7% | viability, T/C [17]: 15.9% | viability, T/C [34]: 70.4% | viability, T/C [19]: 51.6% | viability, T/C [20]: 16.2% | viability, T/C [21]: 11.2% | viability, T/C [22]: 15% | viability, T/C [23]: 14% | viability, T/C [35]: 1.71% | viability, T/C [25]: 2.62% | viability, T/C [26]: 3.95% | viability, T/C [27]: 1.66% | viability, T/C [28]: 2.29% | viability, T/C [29]: 1.1%

CC1OCC2(CCN(c3cnc(Sc4ccnc(N)c4Cl)c(N)n3)CC2)C1N (stereo not given) + COc1cc2nc(C)nc(NC(C)c3cc(N)cc(C(F)(F)F)c3)c2cc1OC1CCOC1
IC50 (second compound 0.1 µM): > 10000 nM | IC50 (second compound 0.316 µM): > 10000 nM | IC50 (second compound 1 µM): > 10000 nM | IC50 (second compound 3.16 µM): > 10000 nM | IC50 (second compound 10 µM): < 31.6 nM | viability, T/C [1]: 79.3% | viability, T/C [2]: 59% | viability, T/C [3]: 75.5% | viability, T/C [4]: 77.5% | viability, T/C [5]: 68.3% | viability, T/C [6]: 90.7% | viability, T/C [7]: 62.2% | viability, T/C [8]: 56.1% | viability, T/C [9]: 65% | viability, T/C [10]: 68.1% | viability, T/C [11]: 70.6% | viability, T/C [12]: 77.9% | viability, T/C [13]: 70.6% | viability, T/C [14]: 72.8% | viability, T/C [15]: 56% | viability, T/C [16]: 63.1% | viability, T/C [17]: 79% | viability, T/C [18]: 64.9% | viability, T/C [19]: 70.7% | viability, T/C [20]: 49.8% | viability, T/C [21]: 51.8% | viability, T/C [22]: 54.9% | viability, T/C [23]: 61.4% | viability, T/C [24]: 67.6% | viability, T/C [25]: 3.02% | viability, T/C [26]: 2.08% | viability, T/C [27]: 4.77% | viability, T/C [28]: 2.12% | viability, T/C [29]: 2.08% | viability, T/C [30]: 0.42%

CCN1CCN(Cc2ccc(Nc3ncc(F)c(-c4cc(F)c5nc(C)n(C(C)C)c5c4)n3)nc2)CC1 + COc1cc2nc(C)nc(NC(C)c3cc(N)cc(C(F)(F)F)c3)c2cc1OC1CCOC1
IC50 (second compound 0.1 µM): 454 nM | IC50 (second compound 0.316 µM): 122 nM | IC50 (second compound 1 µM): 258 nM | IC50 (second compound 3.16 µM): 68 nM | IC50 (second compound 10 µM): < 3.16 nM | viability, T/C (second compound 0.1 µM, first compound 0.00316 µM): 86.4% | viability, T/C [31]: 86.8% | viability, T/C [1]: 62.5% | viability, T/C [2]: 74.7% | viability, T/C [3]: 45.5% | viability, T/C [4]: 45.9% | viability, T/C (second compound 0.316 µM, first compound 0.00316 µM): 80.6% | viability, T/C [32]: 90.1% | viability, T/C [7]: 72.2% | viability, T/C [8]: 51.2% | viability, T/C [9]: 47.2% | viability, T/C [10]: 37.4% | viability, T/C (second compound 1 µM, first compound 0.00316 µM): 78.7% | viability, T/C [33]: 78.1% | viability, T/C [13]: 76.3% | viability, T/C [14]: 56.4% | viability, T/C [15]: 53.2% | viability, T/C [16]: 42.7% | viability, T/C (second compound 3.16 µM, first compound 0.00316 µM): 74.5% | viability, T/C [34]: 67.2% | viability, T/C [19]: 49.7% | viability, T/C [20]: 48.8% | viability, T/C [21]: 42.4% | viability, T/C [22]: 27.1% | viability, T/C (second compound 10 µM, first compound 0.00316 µM): 3.71% | viability, T/C [35]: 1.83% | viability, T/C [25]: 2.06% | viability, T/C [26]: 3.4% | viability, T/C [27]: 1.38% | viability, T/C [28]: 0.23%

CCNC(=O)CC1N=C(c2ccc(Cl)cc2)c2cc(OC)ccc2-n2c(C)nnc21 (stereo not given) + COc1cc2nc(C)nc(NC(C)c3cc(N)cc(C(F)(F)F)c3)c2cc1OC1CCOC1
IC50 (second compound 0.1 µM): 1760 nM | IC50 (second compound 0.316 µM): 711 nM | IC50 (second compound 1 µM): 634 nM | IC50 (second compound 3.16 µM): 506 nM | IC50 (second compound 10 µM): < 31.6 nM | viability, T/C [1]: 81.1% | viability, T/C [2]: 73.4% | viability, T/C [3]: 58.7% | viability, T/C [4]: 63.5% | viability, T/C [5]: 41.7% | viability, T/C [6]: 31.9% | viability, T/C [7]: 78.1% | viability, T/C [8]: 62.4% | viability, T/C [9]: 75.9% | viability, T/C [10]: 40.7% | viability, T/C [11]: 31.4% | viability, T/C [12]: 26.6% | viability, T/C [13]: 66.1% | viability, T/C [14]: 76.3% | viability, T/C [15]: 59.1% | viability, T/C [16]: 42.1% | viability, T/C [17]: 30.8% | viability, T/C [18]: 22.4% | viability, T/C [19]: 59.5% | viability, T/C [20]: 64.7% | viability, T/C [21]: 62.4% | viability, T/C [22]: 32.5% | viability, T/C [23]: 23.2% | viability, T/C [24]: 22% | viability, T/C [25]: 2.75% | viability, T/C [26]: 3.6% | viability, T/C [27]: 1.18% | viability, T/C [28]: 0.76% | viability, T/C [29]: 0.92% | viability, T/C [30]: 0.42%

Cn1nccc1Nc1nccc(-c2cc3c(s2)C(C)(C)N(CCN2CCOCC2)C3=O)n1 + COc1cc2nc(C)nc(NC(C)c3cc(N)cc(C(F)(F)F)c3)c2cc1OC1CCOC1
IC50 (second compound 0.1 µM): 451 nM | IC50 (second compound 0.316 µM): 517 nM | IC50 (second compound 1 µM): 464 nM | IC50 (second compound 3.16 µM): 229 nM | IC50 (second compound 10 µM): < 31.6 nM | viability, T/C [1]: 80.2% | viability, T/C [2]: 95.3% | viability, T/C [3]: 54% | viability, T/C [4]: 29.5% | viability, T/C [5]: 9.12% | viability, T/C [6]: 3.49% | viability, T/C [7]: 84.6% | viability, T/C [8]: 88.2% | viability, T/C [9]: 62.7% | viability, T/C [10]: 31.2% | viability, T/C [11]: 4.2% | viability, T/C [12]: 2.13% | viability, T/C [13]: 79.8% | viability, T/C [14]: 73.6% | viability, T/C [15]: 62.6% | viability, T/C [16]: 26.2% | viability, T/C [17]: 8.33% | viability, T/C [18]: 2.61% | viability, T/C [19]: 71.3% | viability, T/C [20]: 68.4% | viability, T/C [21]: 42.4% | viability, T/C [22]: 15.5% | viability, T/C [23]: 3.42% | viability, T/C [24]: 2.28% | viability, T/C [25]: 3.64% | viability, T/C [26]: 2.94% | viability, T/C [27]: 2.42% | viability, T/C [28]: 1.97% | viability, T/C [29]: 0.91% | viability, T/C [30]: 0.28%
